From US4150049A, “Esters of aromatic sulfonic acids” (The Government of the United States, priority 1977, dated 1979) come the findings set out here.

pKd, pKi: −log10 of the molar value.

In one experiment the target is T1, Thrombin (human) (Homo sapiens, UniProt P00734).
T1 construct: made in house
The experiment in a line: Dixon plot competitive inhibition of hydrolysis of benzyloxy-lysine-nitrophenyl ester by human thrombin. The class given is biochemical. Particulars: Dixon plots, pH 6.0; Ki (M) x 10^5; read-out: Inhibition constant Ki (M) x 10^5, Thrombin (human). Here is the method:
(§1) In accordance with the present invention, nitrophenyl m- and p-amidinophenylmethanesulfonate were prepared, and these compounds were examined for their properties related to inhibition and inactivation of specific enzymes. With regard to the enzymes employed, bovine β-trypsin and thrombin were chromatographically purified by known procedures. Human plasminogen was purified from Cohn fraction III and activated with streptokinase. Human plasma kallikrein was purified about 1000-fold from activated Cohn fraction IV, by affinity chromatography. Human thrombin was prepared by the method of Miller and Copeland. Bovine chymotrypsin three times crystallized was also employed, along with streptokinase.
(§2) Enzyme concentrations were determined by titration with nitrophenyl p-guanidinobenzoate in the case of trypsin, plasmin, and thrombin, whereas chymotrypsin molarity was based on weight. Kallikrein concentration is expressed in enzyme units as measured in a pH-state by esterase action on 0.02 M tos-Arg-OMe in 0.06 M KCl at pH 7.85; one unit corresponds to the hydrolysis of 1 μmole of ester per minute under these conditions.
(§3) Optical density change at 340 nm was measured with double beam operation as described above. […]

In a further experiment the target is T2, β-Trypsin (Bos taurus, UniProt P00760).
T2 construct: bovine β-trypsin; made in house
T2 sequence (P00760 24-246): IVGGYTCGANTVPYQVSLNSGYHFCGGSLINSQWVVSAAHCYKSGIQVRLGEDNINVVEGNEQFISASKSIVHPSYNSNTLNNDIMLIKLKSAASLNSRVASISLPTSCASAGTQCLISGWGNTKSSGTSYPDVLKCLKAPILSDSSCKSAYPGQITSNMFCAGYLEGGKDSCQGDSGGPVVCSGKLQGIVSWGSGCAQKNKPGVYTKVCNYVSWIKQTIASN
The experiment in a line: Dixon plot competitive inhibition of hydrolysis of benzyloxy-lysine-nitrophenyl ester by β-trypsin. Format: biochemical, bovine. Conditions: Dixon plots, pH 6.0; Ki (M) x 10^5; read-out: Inhibition constant Ki (M) x 10^5, β-Trypsin. Here is the method:
as §1, §2, §3

A further experiment deals with T3, Plasmin (human) (Homo sapiens, UniProt P00747).
T3 construct: from tissue; host or cells: Cohn fraction III (human plasma)
T3 sequence (P00747 581-810 limits assumed): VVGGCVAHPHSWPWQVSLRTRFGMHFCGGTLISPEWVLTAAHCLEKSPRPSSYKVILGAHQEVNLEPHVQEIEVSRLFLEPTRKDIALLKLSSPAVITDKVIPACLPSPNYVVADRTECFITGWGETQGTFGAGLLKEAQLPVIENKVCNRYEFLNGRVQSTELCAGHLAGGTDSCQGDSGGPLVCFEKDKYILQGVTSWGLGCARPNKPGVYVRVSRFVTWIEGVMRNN
T3 sequence (P00747 97-580 limits assumed): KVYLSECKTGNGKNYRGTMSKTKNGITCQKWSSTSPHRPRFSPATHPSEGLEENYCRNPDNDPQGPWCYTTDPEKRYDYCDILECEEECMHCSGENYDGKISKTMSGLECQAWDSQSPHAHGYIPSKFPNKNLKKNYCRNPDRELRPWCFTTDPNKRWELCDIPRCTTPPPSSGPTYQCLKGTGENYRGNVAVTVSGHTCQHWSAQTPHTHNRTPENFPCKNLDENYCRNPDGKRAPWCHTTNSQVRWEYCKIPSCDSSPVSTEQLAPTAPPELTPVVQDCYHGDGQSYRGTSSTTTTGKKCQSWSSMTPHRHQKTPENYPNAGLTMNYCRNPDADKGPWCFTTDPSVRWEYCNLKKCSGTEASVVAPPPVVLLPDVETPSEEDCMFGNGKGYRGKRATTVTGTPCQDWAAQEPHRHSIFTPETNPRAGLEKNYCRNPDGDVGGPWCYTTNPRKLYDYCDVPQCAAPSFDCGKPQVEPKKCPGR
The experiment in a line: Dixon plot competitive inhibition of esterase action of human plasmin. The class given is biochemical. Particulars: Dixon plots, pH 6.0; Ki (M) x 10^5; read-out: Inhibition constant Ki (M) x 10^5, Plasmin (human). Here is the method: as §1, §2, §3

The target of another experiment is T4, Thrombin (bovine) (Bos taurus, UniProt P00735).
T4 construct: made in house
Put plainly: Dixon plot competitive inhibition of hydrolysis of benzyloxy-lysine-nitrophenyl ester by bovine thrombin. Format: biochemical. The protocol: as §1, §2, §3

The next experiment has as its target T5, α-Chymotrypsin (Bos taurus, UniProt P00766).
T5 construct: α-Chymotrypsin
The experiment in a line: Dixon plot competitive inhibition of hydrolysis of benzyloxy-lysine-nitrophenyl ester by α-chymotrypsin. Particulars: Dixon plots, pH 6.0; Ki (M) x 10^5; read-out: Inhibition constant Ki (M) x 10^5, α-Chymotrypsin. Format: biochemical, bovine. Here is the method: as §1, §2, §3

The target in experiment [1] is T6, Plasma kallikrein (human) (Homo sapiens, UniProt P03952).
T6 construct: from tissue
T6 sequence (P03952 391-638 limits assumed): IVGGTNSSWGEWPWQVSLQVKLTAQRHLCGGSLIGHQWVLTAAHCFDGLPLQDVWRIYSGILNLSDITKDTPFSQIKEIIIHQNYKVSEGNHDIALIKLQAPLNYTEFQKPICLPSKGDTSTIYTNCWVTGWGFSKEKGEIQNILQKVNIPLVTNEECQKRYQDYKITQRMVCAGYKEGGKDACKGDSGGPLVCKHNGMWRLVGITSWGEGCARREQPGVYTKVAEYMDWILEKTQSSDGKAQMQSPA
T6 sequence (P03952 20-390 limits assumed): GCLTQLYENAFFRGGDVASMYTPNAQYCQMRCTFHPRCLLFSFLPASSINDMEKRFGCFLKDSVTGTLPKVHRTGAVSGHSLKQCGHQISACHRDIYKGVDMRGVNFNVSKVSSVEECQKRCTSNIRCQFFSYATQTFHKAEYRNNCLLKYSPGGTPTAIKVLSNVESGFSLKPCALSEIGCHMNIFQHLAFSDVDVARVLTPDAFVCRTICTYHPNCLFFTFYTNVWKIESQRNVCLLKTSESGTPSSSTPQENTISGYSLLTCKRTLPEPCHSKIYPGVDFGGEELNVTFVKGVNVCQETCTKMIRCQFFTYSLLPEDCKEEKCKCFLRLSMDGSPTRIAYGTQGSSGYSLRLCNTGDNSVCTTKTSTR
The experiment in a line: Dixon plot competitive inhibition of esterase action of human plasma kallikrein. Particulars: Dixon plots, pH 6.0; Ki (M) x 10^5; read-out: Inhibition constant Ki (M) x 10^5, Plasma kallikrein (human). Format: biochemical. The protocol:
as §1, §2, §3

The next experiment concerns the target thrombin (Bos taurus, UniProt P00735). Put plainly: presteady state kinetics of nitrophenol production by thrombin. Format: biochemical, bovine. Here is the method:
as §1
The action of thrombin on nitrophenyl p-amidinophenylmethanesulfonate was also studied in 0.05 M sodium veronal buffer, pH 7.4 (with 0.02 M Ca^2+ + at a series of reagent concentrations to determine the possible formation of an intermediate complex as a step in the inactivation process. The apparatus was the same as above and presteady state nitrophenol production was analyzed for the calculation of k2 and KS. Concentrations of the p-isomer were 0.5, 1.0, 2.0, 2.5, 3.75, and 5.0×10^-4 M. One of the progress curves is shown in FIG. 1, with this graph representing the action of thrombin (3×10^-6 M) on the p-isomer, pH 8.3, 25° C., with stoichiometric nitrophenol release accompanying inactivation. Although the full chromogeneity of nitrophenol is not reached at this pH, the final value in each case was equal to that obtained in control titrations with NPGB.

As a reminder, the Ki is a measure of affinity in units of concentration, obtained from inhibition or displacement. The pKi is the negative decadic logarithm of the Ki, by convention in mol/L. The low end stands for a high Ki, the high end for a low Ki. As a reminder, the pKd is the Kd on a negative log10 scale, so that one unit is a factor of ten. High values mean a small Kd, low ones a large Kd.

For the compound `N=C(N)c1cccc(CS(=O)(=O)Oc2ccc([N+](=O)[O-])cc2)c1` [m-isomer], the Ki on Thrombin (human) was 5.3e-05 M; at β-Trypsin it was 9e-06 M; on Plasmin (human), 4.2e-05 M; on α-Chymotrypsin, 1.3e-05 M; in experiment [1] it was 1.9e-05 M. On Thrombin (bovine), this compound had a pKi of 3.38.

As to `N=C(N)c1ccc(CS(=O)(=O)Oc2ccc([N+](=O)[O-])cc2)cc1` [p-isomer], the inhibition constant (Ki) is 7e-05 M at β-Trypsin, 0.0005 M at Plasmin (human), 3.6e-05 M at α-Chymotrypsin and 4.7e-05 M in experiment [1]. The same compound showed a pKd on thrombin of 3.92. The same compound gave a pKi at thrombin of 3.92. Moreover, the kinact at thrombin (presteady state kinetics, pH 7.4, read-out: rate constant for inactive enzyme formation, k2 (converted)) was 0.0193 s⁻¹.
